Assay [1] has as its target T1, PARK7 (Homo sapiens, UniProt Q99497).
T1 sequence (Q99497 1-189): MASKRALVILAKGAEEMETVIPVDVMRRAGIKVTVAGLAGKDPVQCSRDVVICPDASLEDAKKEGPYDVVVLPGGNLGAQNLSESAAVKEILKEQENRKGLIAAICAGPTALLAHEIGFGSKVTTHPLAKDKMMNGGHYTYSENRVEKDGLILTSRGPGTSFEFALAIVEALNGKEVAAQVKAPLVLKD
As to the kind of experiment: Hit validation and pure-compound testing in the PARK7 FP assay with JYQ-107. Type of assay: biochemical. The settings on record: for inhibition at 0.25 µM: read-out: % Inhibition 0.25 µM; for potency in FP assay compared to JYQ-88: 0.25 and 1 μM; for inhibition at 0.5 µM: read-out: % Inhibition 0.5 µM.

The target in assay [2] is T1, PARK7. The experiment in a line: Cell-based competition assay with probe JYQ-92 in HEK293T cells. The settings on record: live HEK293T cells, 5 μM, 24 h. The protocol:
Samples were resolved by SDS-PAGE and analyzed by fluorescence scanning and Western blotting (Figure 2B). The target engagement of cellular PARK7 is reflected by the disappearance of the PARK7 labeling band in the fluorescence gel scan and by the loss of the shifted probe-labeled PARK7 band in the Western blot.
HEK293T cells were treated with the indicated concentrations of indicated inhibitors for indicated incubation time.
Figure S1. Assessment of the cell permeability of JYQ -88. (A) Structure of JYQ-92.
(B) Target engagement of JYQ-88 in HEK293T cells. HEK293T cells were incubated […]
with PARK7 probe JYQ-92 fo r 1 h at 37 °C. The reactions were stopped by the addition of NuPAGE™ LDS sample buffer (4x). Samples were resolved by SDS -PAGE using […]
fluorescence scanning on a Typhoon FLA 9500 (GE Healthcare Life Sciences) using […]
The disappearance of the JYQ-92-labeled band in […]
of JYQ-88 is used as a measurement of cellular PARK7 engagement with JYQ -88.
(§1) (1 picture or pasted object on this page, not shown here)

Assay [3] has as its system DUBs. The experiment in a line: Activity-based DUB profiling with Rho-Ub-PA probe in HEK293T cells. To be noted: 5 µM, 24 h. Type of assay: cell-based, human. Here is the method:
Figure S3. Activity evaluation of inhibitors against DUBs in HEK293T cells. (A ) Inhibitors from structure modification. (B) Inhibitors from HTS. HEK293T cells were […]
incubation with Rho- Ub-PA probe for 30 min at 37 °C. Samples were resolved by SDS - […]
and visualized by fluorescence scanning on a Typhoon FLA 9500 (GE Healthcare Life […]
Nitrocellulose membranes and Western blot analysis.
as §1

The target of assay [4] is T1, PARK7. As to the kind of experiment: High-throughput screen of the crude compound library, PARK7 fluorescence polarization (FP) assay with FP reagent JYQ-107. Type of assay: biochemical. The settings on record: for inhibition at 1.25 µM: read-out: HTS FP assay %Inhibition (1.25 µM).
Assay [5] concerns the target T1, PARK7. The experiment in a line: Activity evaluation of PROTACs in cells (PARK7 degradation, immunoblot). The settings on record: A549 cells; for effect of pretreatment on JYQ-194-induced PARK7 degradation: pretreatment 4 h (5 μM pomalidomide, 5 μM JYQ-173 or 10 μM MG-132), then JYQ-194 5 μM 8 h. For orientation: Immunoblotting shows a protein as a band on a membrane.
Protocol: A549 cells were seeded into 6-well plates. The next day after seeding, cells were incubated with the indicated concentrations of indicated PROTACs for 8 h. The cells were then washed with PBS and collected. The collected cell pellets were lysed with Tris-triton buffer as described above. The prepared cell lysate of each sample (10 μL) was added 5 μL 3× LDS + 5% β-mercaptoethanol, and boiled for 10 min.

Assay [6] addresses T1, PARK7. As to the kind of experiment: biochemical. Also on record: Fluorescence polarization competition: residual PARK7 labelling by JYQ-107 probe after 1 h preincubation, % inhibition. To be noted: sheet Validation pure compounds. The protocol:
The 15 pure compounds from the two different approaches (5 compounds from structure modification and 10 compounds from HTS) were assessed for their potency to inhibit PARK7 at 0.25 and 1 μM final concentrations using the FP assay (Figure 2A). […] Fifty four compounds showing inhibition above 90% were picked and checked at three different concentrations. Using a Labcyte Echo550 acoustic dispenser, 20, 10, and 5 nL of 1 mM compound stock solutions were transferred from the source plates into an empty 384-well plate to obtain 1, 0.5, 0.25 μM final concentrations. […] The relative loss of FP signal compared with reference controls (5 mM NEM, 100% inhibition, and DMSO, 0% inhibition) was used to calculate the remaining enzyme activity. The inhibition percentage of these 54 compounds was plotted as heatmaps using Graphpad Prism 9.0.1 software. […] Stock solutions of 0.26 μM PARK7 and 80 nM JYQ-107 were prepared. Using a Labcyte Echo550 acoustic dispenser, 10 nL of 1 mM DMSO stock solutions of the library compounds was transferred from the source plates into the empty 1536-well screening plates to obtain a 1.25 μM final compound concentration. Next, PARK7 (6 μL, final concentration 0.2 μM) was dispensed using a Biotek MultiflowFX [compound left out] dispenser and incubated for 2 h, followed by dispensing the probe JYQ-107 (2 μL, final concentration 20 nM). […] The percentage inhibition of each compound was calculated from the FP values, normalized to the positive (5 mM N-ethylmaleimide, 100% inhibition) and negative (DMSO, 0% inhibition) controls.

The mark [7] stands for this setting: 1.25 µM, crude compound library.

Consider 16 molecules from article PMC11129182, “Development of Inhibitors, Probes, and PROTAC Provides a Complete Toolbox to Study PARK7 in the Living Cell” (Journal of Medicinal Chemistry, 2024).

Where two headings read alike, the source gives them in different places. Residues, ends and D or L forms follow the SMILES beside them. *: point of attachment. Cbz = O=C(OCc1ccccc1)*

As for `N#CN1CC[C@@H](C(=O)Nc2nc3c(s2)CN(C(=O)CN2CCOCC2)CC3)C1` [Compound 1, (R)-1-Cyano-N-(5-(2-morpholinoacetyl)-4,5,6,7-tetrahydrothiazolo[5,4-c]pyridin-2-yl)pyrrolidine-3-carboxamide], in assay [1] (pure compounds), the inhibition (in general, the share of the control response that was lost under treatment) at 0.25 µM is 62.8%; the inhibition at 1 µM was 87.7%; the “potency in FP assay compared to JYQ-88” value is reported as “did not improve”. Also, the “cellular target engagement of PARK7” value in assay [2] is recorded as “did not bind with PARK7 in cells”.
As for `CN1CCN(CC(=O)N2CCc3nc(NC(=O)[C@@H]4CCN(C#N)C4)sc3C2)CC1` [Compound 2, (R)-1-Cyano-N-(5-(2-(4-methylpiperazin-1-yl)acetyl)-4,5,6,7-tetrahydrothiazolo[5,4-c]pyridin-2-yl)pyrrolidine-3-carboxamide], in assay [1] (pure compounds), the inhibition at 0.25 µM worked out at 53.7%, the inhibition at 1 µM turned out to be 83.7% and the “potency in FP assay compared to JYQ-88” value is reported as “did not improve”. Further, the “cellular target engagement of PARK7” value in assay [2] was “did not bind with PARK7 in cells”.
The matching figures for `N#CN1CC[C@@H](C(=O)Nc2nc3c(s2)CN(C(=O)CN2CCNCC2)CC3)C1` [Compound 4, (R)-1-Cyano-N-(5-(2-(piperazin-1-yl)acetyl)-4,5,6,7-tetrahydrothiazolo[5,4-c]pyridin-2-yl)pyrrolidine-3-carboxamide]: 40.2%, 59.9%, “lowered” and “did not bind with PARK7 in cells”.
In the case of `N#CN1CC[C@@H](C(=O)Nc2nc3c(s2)CN(C(=O)CC2CCNCC2)CC3)C1` [Compound 5, (R)-1-Cyano-N-(5-(2-(piperidin-4-yl)acetyl)-4,5,6,7-tetrahydrothiazolo[5,4-c]pyridin-2-yl)pyrrolidine-3-carboxamide], in assay [1] (pure compounds), the inhibition at 0.25 µM stood at 38.5%, at 1 µM the inhibition was 71% and the “potency in FP assay compared to JYQ-88” value is listed as “lowered”. For the same molecule, the “cellular target engagement of PARK7” value in assay [2] is “did not bind with PARK7 in cells”.
As to `N#CN1CC[C@@H](C(=O)Nc2nc3c(s2)CN(C(=O)c2cnc(-c4cccs4)s2)CC3)C1` [Compound 108, (R)-1-Cyano-N-(5-(2-(thiophen-2-yl)thiazole-5-carbonyl)-4,5,6,7-tetrahydrothiazolo[5,4-c]pyridin-2-yl)pyrrolidine-3-carboxamide], in assay [3], the “inhibition of DUBs in cells” value was “showed inhibition of one or more DUBs, mainly UCHL1”. For the same molecule, in assay [4] (setting [7]), the inhibition at 1.25 µM is 90.8%. In assay [1] (crude compounds), the inhibition at 0.25 µM is 64.2% and the inhibition at 1 µM came out at 98.5%. In addition, the inhibition at 0.5 µM in assay [1] (crude compounds, 0.5 µM) turned out to be 85.7%. Further, in assay [1] (pure compounds), the inhibition at 0.25 µM is 67.9% and the inhibition at 1 µM was 93.1%.
For `Cc1csc(-c2cccc(C(=O)N3CCc4nc(NC(=O)[C@@H]5CCN(C#N)C5)sc4C3)c2)n1` [Compound 334, (R)-1-Cyano-N-(5-(3-(4-methylthiazol-2-yl)benzoyl)-4,5,6,7-tetrahydrothiazolo[5,4-c]pyridine-2-yl)pyrrolidine-3-carboxamide], the “inhibition of DUBs in cells” value in assay [3] was “showed inhibition of one or more DUBs, mainly UCHL1”. For the same molecule, in assay [4] (setting [7]), the inhibition at 1.25 µM was found to be 89.4%. For the same molecule, in assay [1] (crude compounds), the inhibition at 0.25 µM worked out at 68.5% and the inhibition at 1 µM was 97.3%. In assay [1] (crude compounds, 0.5 µM), the inhibition at 0.5 µM turned out to be 86.9%. In assay [1] (pure compounds), the inhibition at 0.25 µM turned out to be 84.2% and 1 µM produced 95.6% inhibition.
As to `Cc1cc(C(=O)N2CCc3nc(NC(=O)[C@@H]4CCN(C#N)C4)sc3C2)ccc1Br` [Compound 415, (R)-N-(5-(4-Bromo-3-methylbenzoyl)-4,5,6,7-tetrahydrothiazolo[5,4-c]pyridin-2-yl)-1-cyanopyrrolidine-3-carboxamide], the “inhibition of DUBs in cells” value in assay [3] is listed as “showed inhibition of one or more DUBs, mainly UCHL1”. For the same molecule, the inhibition at 1.25 µM in assay [4] (1.25 µM, crude compound library, FP reagent JYQ-107) was determined as 93.1%. Moreover, in assay [1] (crude compounds), the inhibition at 0.25 µM came out at 58% and the inhibition at 1 µM came out at 95.6%. In addition, in assay [1] (crude compounds, 0.5 µM), the inhibition at 0.5 µM was 79.8%. In assay [1] (pure compounds), the inhibition at 0.25 µM was 68.3% and the inhibition at 1 µM was found to be 92.6%.
Consider `N#CN1CC[C@@H](C(=O)Nc2nc3c(s2)CN(C(=O)c2cccc(S(=O)(=O)N4CCN(C(=O)Cn5cc(COCCOCCNc6cccc7c6C(=O)N(C6CCC(=O)NC6=O)C7=O)nn5)CC4)c2)CC3)C1` (some centres unmarked) [JYQ-187], for which the PARK7 degradation result in assay [5] (8 h) is recorded as “No degradation of PARK7 was observed”.
As to `N#CN1CC[C@@H](C(=O)Nc2nc3c(s2)CN(C(=O)c2cccc(S(=O)(=O)N4CCN(C(=O)Cn5cc(COCCOCCOCCNc6cccc7c6C(=O)N(C6CCC(=O)NC6=O)C7=O)nn5)CC4)c2)CC3)C1` (some centres unmarked) [JYQ-188], the PARK7 degradation entry in assay [5] (8 h) is recorded as “No degradation of PARK7 was observed”.
`N#CN1CC[C@@H](C(=O)Nc2nc3c(s2)CN(C(=O)c2cc(-n4cc(COCCOCCOCCNc5cccc6c5C(=O)N(C5CCC(=O)NC5=O)C6=O)nn4)ccc2F)CC3)C1` (some centres unmarked) [JYQ-195]: the “concentration at which PARK7 degradation starts” value in assay [5] (0.1 to 5 μM, 8 h) came out at 2 µM.
Consider `CC(C)C[C@@H](C=O)NC(=O)[C@H](CC(C)C)NC(=O)[C@H](CC(C)C)NC(=O)OCc1ccccc1` [MG-132, reference compound] (Cbz-Leu-Leu-Leu-aldehyde), for which the “effect of pretreatment on JYQ-194-induced PARK7 degradation” value in assay [5] is reported as “abolished”.
In assay [6], `N#CN1CC[C@@H](C(=O)Nc2nc3c(s2)CN(C(=O)c2cccc(O)c2)CC3)C1` [compound 3] displayed an inhibition at 0.25 µM of 58.4% and an inhibition at 1 µM of 90.1%.
In assay [6], `N#CN1CC[C@@H](C(=O)Nc2nc3c(s2)CN(C(=O)c2cccc(S(=O)(=O)NCC4CCCO4)c2)CC3)C1` (some centres unmarked) [compound 55] had an inhibition at 0.25 µM of 64.7% and an inhibition at 1 µM of 93.5%.
For `N#CN1CC[C@@H](C(=O)Nc2nc3c(s2)CN(C(=O)c2cccc(S(=O)(=O)NCCc4ccc(S(N)(=O)=O)cc4)c2)CC3)C1` [compound 199], in assay [6], at 0.25 µM the inhibition was 80.7% and the inhibition at 1 µM was 94.6%.
Regarding `Nc1cccc2c1C(=O)N(C1CCC(=O)NC1=O)C2=O` (centres unmarked) [pomalidomide, reference compound], the “effect of pretreatment on JYQ-194-induced PARK7 degradation” value in assay [5] is reported as “abolished”.
For “(R)-N-(5-(3-(1,2,4-Oxadiazol-3-yl)benzoyl)-4,5,6,7-tetrahydrothiazolo[5,4-c]pyridin-2-yl)-1-cyanopyrrolidine-3-carboxamide [Compound 199]”, the “inhibition of DUBs in cells” value in assay [3] is reported as “showed inhibition of one or more DUBs, mainly UCHL1”. Further, in assay [4] (setting [7]), the “HTS FP assay %Inhibition (1.25 µM)” value stood at 95.3%. For the same molecule, in assay [4] (HTS of crude compound library, sheet "SMILES+%Inh HTS"), the % Inhibition (commonly the share of the control response that was lost under treatment) is given as 95.3%. Further, in assay [1] (crude compounds), the “% Inhibition 0.25 µM” value worked out at 81.4% and the “% Inhibition 1 µM” value is reported as 98.6%. In assay [1] (crude compounds, 0.5 µM), the “% Inhibition 0.5 µM” value came out at 91.6%. For the same molecule, in assay [1] (pure compounds), the “% Inhibition 0.25 µM” value was found to be 80.7% and the “% Inhibition 1 µM” value is on record as 94.6%.
